Source: patent US6703398B2, “Orally administered analgesic compositions containing nalbuphine” (priority 2001, dated 2004)

Key:
[1] = literature; cited from earlier work
[2] = Pharmacokinetics of nalbuphine in beagles after oral administration of SDN compositions; conditions: 30 mg/kg of SDN; for AUC/Dose: nalbuphine in plasma, 30 mg/kg
Method: To assess the effects of various pharmaceutical compositions of the present invention on beagles. The compositions were orally administered into beagles, and the concentration of nalbuphine in vivo was monitored in the animals as follows:
2, In each study group, the pharmaceutical composition that contained 30 mg/kg of SDN were orally given to beagles.
4. The blood samples were analyzed by high performance liquid chromatography (HPLC) to determine the pharmacokinetics (including the half-life and bioavailability of nalbuphine) in vivo.

[3] = Efficacy and bioavailability study of nalbuphine ester prodrugs as orally administered compositions; assay type: in vivo, animals and humans; conditions: oral composition with oily substance, effect of adding the solubility-assisting agent; comparison among active ingredients
Text: Each and every one of these nalbuphine and/or nalbuphine ester prodrugs as listed above has been tested for suitability as an orally administered pharmaceutical composition for use in animals and humans. The efficacy and bioavailability of these nalbuphine ester prodrugs have been studied.

| Compound | bioavailability through oral administration [1] | concentration of nalbuphine in plasma 1-3 hours after the oral uptake of SDN ([2]; FIG. 1, comparison among groups) | concentration of nalbuphine in plasma after the peak ([2]; FIG. 1, later time points) | Bioavailability ([2]; bioavailability of nalbuphine, means ± S.E.) [%] | Nalbuphine Half-Life ([2]; nalbuphine in plasma by HPLC, means ± S.E.) [h] | AUC/Dose ([2]; means ± S.E.) [ng·kg·h/mL/mg] | AUC/Dose ([2]; means ± S.E., listed as SDN Powder Group) [ng·kg·h/mL/mg] | bioavailability and half-life of nalbuphine in blood [3] |
| --- | --- | --- | --- | --- | --- | --- | --- | --- |
| nalbuphine hydrochloride [nalbuphine-HCl] | less than 5% |  |  |  |  |  |  |  |
| O=C(CCCCCCCCC(=O)Oc1ccc2c3c1O[C@H]1[C@@H](O)CC[C@@]4(O)[C@@H](C2)N(CC2CCC2)CC[C@]314)Oc1ccc2c3c1O[C@H]1[C@@H](O)CC[C@@]4(O)[C@@H](C2)N(CC2CCC2)CC[C@]314 [SDN Powder, sebacoyl dinalbuphine ester] |  | much less than the other two groups | decreased substantially | 14.6 | 8.1 ± 1.6 | 39 ± 11 | 39 | the best in terms of longer half-life and greater bioavailability rate |
